Assay results published in publication PMC8381248 (Frontiers in Pharmacology, 2021).
Where “and” joins values, the source holds several entries; their conditions need not be identical. Equal entries are not always repeated. Where two headings read alike, the source gives them in different places.

Assays:
[1] = Pharmacokinetic study in rat plasma after intravenous and oral administration; format: in vivo, Sprague-Dawley (SD) rats; details: for Cmax / AUC(0-t) / Tmax / AUC(0-inf) / MRT inf / Cl_pred / HL_Lambda_z / Vz_pred: rat plasma; for AUC(0-inf): read-out: AUCINF_pred; for MRT inf: read-out: MRTINF_pred
Procedure: Eighteen male SD rats were housed in the barrier rodent facilities to acclimatize for a week in animal quarters, which had air conditioning and an automatically controlled photoperiod of 12 h of light daily. Rats had free access to standard chow diet and water until 12 h prior to the beginning of the experiment, at which time only water was accessed freely. The rats were randomly divided into six groups, with three rats in each group.
A series of calibration standard working solutions (20.0, 10.0, 2.0, 1.0, 0.2, 0.04, and 0.02 μg/ml) was prepared freshly by diluting the stock solution stepwise using ACN-water (70:30, v/v). […] The IS working solutions of 200 ng/ml of tolbutamide or 50 ng/ml of diclofenac sodium were prepared by dilution of the stock standard solution with acetonitrile solution. All the solutions were stored at 4°C and brought to room temperature before use.
QC samples (3, 40, 800, and 1,600 ng/ml) were prepared separately. For PDG urine samples, the calibration standards were prepared by spiking 5 μL of the appropriate standard working solutions of PDG to 95 μL blank rat urine to prepare the final urine concentration of PDG ranging from 1 ng/ml to 2000 ng/ml. QC samples (3, 40, 800, and 1,600 ng/ml) were prepared separately. […] QC samples (15, 30, 400, and 1,600 ng/ml) were prepared separately.
Blood samples were collected via orbital venous plexus puncture into heparinized microfuge tubes at intervals of 0, 0.083, 0.25, 0.5, 1, 2, 4, 8, 10, 24, and 30 h after administration. The plasma samples were obtained by centrifuging the blood samples at 6,000 rpm for 10 min at 4°C and storing them at −20°C until further analysis. For the plasma calibration standards, QC plasma samples, and the testing plasma samples, 40 µL of the plasma samples were extracted with 120 µL of IS working solution (tolbutamide) by vortex mixing for 1 min and at 4°C centrifugation for 10 min at 13,000 rpm. The supernatant was separated and evaporated under a gentle stream of nitrogen. The residue was reconstituted with 120 µL of 30% ACN followed by vortex mixing. Then, the solutions were centrifuged at 13,000 rpm for 10 min at 4°C.
Linear gradient elution was performed with certain portions of 10 mM ammonium acetate-water solution containing 0.1% formic acid (mobile phase A) and methanol (mobile phase B). The detailed conditions have been described in Support Materials (Supplementary Table S5).
In the ADME properties and pharmacokinetics studies, data are presented as mean ± standard deviation (SD). Statistically significant differences were analyzed by one-way ANOVA or Student’s t-test. The level of significance was set at p < 0.05. The LC/MS/MS data were collected and analyzed by Analyst 1.6.1 (AB Sciex). Pharmacokinetic analyses were performed by non-compartmental methods using Phoenix WinNolin version 6.3 (Pharsight Corporation, Mountain View, CA, United States).

[2] = Plasma protein binding rate, rapid equilibrium dialysis, human plasma; format: in vitro ADME; details: 37°C
Procedure: (§1) In brief, the unbound drugs (or references) were separated from plasma (human and rat) in a 96-well plate with a semipermeable membrane through which only unbound drug can permeate. The equilibrium unit was sealed and incubated at 37°C in a mixer at 100 rpm for 4 h.
(§2) Then, 50 ng/ml of midazolam and 50 ng/ml of tolbutamide (in acetonitrile) were used as IS.
(§3) After reaching equilibrium, the concentrations of the samples in both the plasma and the buffer compartment were determined. According to the specification, the resultant supernatant was collected, properly diluted by distilled water, vortexed for 10 min, and finally analyzed using LC-MS/MS. All the samples (PDG, PINL, diclofenac, and propranolol) for detection were prepared in duplicate.
(§4) The concentrations of the samples were determined by internal standard methods, in which the data were acquired and analyzed by Analyst 1.6.1 software station (AB Sciex Corporation, Boston, MA, United States). The equation of plasma protein binding rate is calculated as follows: Free drug rate (%)=CB/CA×100% (3) Plasma protein binding rate (%)=100%−Free drug rate(%) (4) C B is the drug concentration in dialysis chamber, and C A is the drug concentration in the sample chamber.

in vitro = details: microsomes
Procedure: Then, this incubation plate containing mixed solution and NADPH regeneration system was agitated on a plate shaker at 100 rpm and pre-incubated at 37°C for 5 min. Subsequently, 300 μL of precooled quenching solution was added to each well of another deep-well plate (quench plate), which was cooled on ice. The solution in the incubation plate was transferred into the well of the quench plate as the samples in 0 min before it was mixed with another 20 µL of NADPH regeneration solution in the wells.
The incubation plate was incubated at 37°C for 0, 10, 30, and 90 min. At each time point, 100 μL of the supernatant in the incubation plate was removed from each well, quenched immediately, transferred to the wells of the ice-cold quench plate, and vortexed for 5 min. Additionally, an equal volume of pre-warmed fresh regeneration solution was added to the incubation plate for compensation after every withdrawal. […] Each test was operated in duplicate. The determination conditions of LC-MS/MS are shown in Support Materials (Supplementary Table S4).
The in vitro T1/2 was determined by converting the analyte/IS peak area ratios to percentage of drug remaining using the initial peak (t = 0 min) area ratio values as 100%.

[3] = Plasma protein binding rate, rapid equilibrium dialysis, rat plasma; format: in vitro ADME; details: 37°C
Procedure: as §1, §2, §3, §4

[4] = Kinetic solubility test in PBS; format: physicochemical; details: phosphate-buffer saline (PBS)
Procedure: Internal standard (IS) solutions (propranolol and tolbutamide) were dissolved by acetonitrile (50 ng/ml propranolol + 200 ng/ml tolbutamide).
The sample solutions were analyzed using LC-MS/MS. All the samples (test samples and references) for detection were prepared in duplicate. The conditions for LC-MS/MS are shown in Support Materials (Supplementary Table S1).

[5] = male, Sprague-Dawley, IV 5 mg/kg, n = 3
[6] = male, Sprague-Dawley, PO 40 mg/kg, n = 3

Question: For COc1cc(C2OCC3C(c4ccc(OC5OC(CO)C(O)C(O)C5O)c(OC)c4)OCC23)ccc1OC1OC(CO)C(O)C(O)C1O (single isomer, unassigned; (+)) [PDG, (+)-1-pinoresinol 4,4′-di-O-β-D-glucopyranoside], which bioavailability ([1]; male, Sprague-Dawley, plasma, rat, from AUClast of IV 5 mg/kg and PO 40 mg/kg, read-out: absolute oral bioavailability (F%)) is on record?
Answer: ~0.19%

Question: What about the Cmax ([1]; male, Sprague-Dawley, rat, plasma, iv, 5 mg/kg, IV 5 mg/kg, n = 3, read-out: Cmax) of the same compound?
Answer: 13300 ng/mL

Question: What about the Cmax ([1]; male, Sprague-Dawley, rat, plasma, iv, 5 mg/kg, IV 5 mg/kg, ng/ml value expressed in molar units, read-out: Cmax) of the same compound?
Answer: 19.6 µM

Question: And the Cmax ([1]; male, Sprague-Dawley, rat, plasma, po, 40 mg/kg, PO 40 mg/kg, n = 3, read-out: Cmax)?
Answer: 45.3 ± 37.5 ng/mL

Question: And the Cmax ([1]; male, Sprague-Dawley, rat, plasma, po, 40 mg/kg, PO 40 mg/kg, ng/ml value expressed in molar units, read-out: Cmax)?
Answer: 0.0665 µM

Question: What about the AUC(0-t) [1, 5] of the same compound?
Answer: 7470 ng·h/mL

Question: And the Tmax [1, 5]?
Answer: 6 min

Question: And the AUC(0-inf) [1, 5]?
Answer: 7470 ng·h/mL

Question: And the MRT inf [1, 5]?
Answer: 0.51 ± 0.09 h

Question: What about the AUC(0-t) [1, 6] of the same compound?
Answer: 113 ± 122 ng·h/mL

Question: What about the Tmax [1, 6] of the same compound?
Answer: 30 min

Question: And the AUC(0-inf) [1, 6]?
Answer: 121 ± 129 ng·h/mL

Question: What about the MRT inf [1, 6] of the same compound?
Answer: 1.9 ± 0.95 h

Question: What about the Cl_pred ([1]; IV 5 mg/kg, n = 3) of the same compound?
Answer: 0.69 ± 0.15 L/h/kg

Question: And the HL_Lambda_z ([1]; IV 5 mg/kg, n = 3)?
Answer: 2.0 ± 0.5 h

Question: What about the Vz_pred ([1]; IV 5 mg/kg, n = 3) of the same compound?
Answer: 1.98 ± 0.43 L/kg

Question: What about the Cmax ([1]; IV 5 mg/kg, n = 3, 5 mg/kg) of the same compound?
Answer: 13,328.57 ± 1,625.4 ng/ml

Question: What about the Cl_pred ([1]; PO 40 mg/kg, n = 3) of the same compound?
Answer: 653.9 ± 492.6 L/h/kg

Question: And the Vz_pred ([1]; PO 40 mg/kg, n = 3)?
Answer: 777.0 ± 392.4 L/kg

Question: What about the HL_Lambda_z ([1]; PO 40 mg/kg, n = 3, 40 mg/kg) of the same compound?
Answer: 1.15 h and 1.15 ± 0.75 h

Question: And the fraction unbound at 4 h, 10 µM [2]?
Answer: 0.548

Question: What about the half-life (in vitro; human) of the same compound?
Answer: 1000 min

Question: And the half-life at 5 µM (in vitro; human)?
Answer: 1000 min

Question: What about the microsomal CLint (in vitro; human) of the same compound?
Answer: 1.4 µL/min/mg

Question: And the half-life (in vitro; rat)?
Answer: 1040 min

Question: And the half-life at 5 µM (in vitro; rat)?
Answer: 1040 min

Question: What about the microsomal CLint (in vitro; rat) of the same compound?
Answer: 1.3 µL/min/mg

Question: And the fraction unbound at 4 h, 10 µM [3]?
Answer: 0.623

Question: And the solubility kinetic ([4]; aqueous buffer, kinetic from dmso stock, PBS (100 mM, pH 7.4))?
Answer: 99.5 ± 14 µg/mL

Question: What about the solubility kinetic ([4]; aqueous buffer, kinetic from dmso stock, PBS (pH 7.4), μg/ml value expressed in µM) of the same compound?
Answer: ~146 µM

Question: What about the solubility kinetic ([4]; PBS (pH 7.4), μg/ml value expressed in µM) of the same compound?
Answer: > 100 µM
